Drawing on ChEMBL document CHEMBL3259623, “A mixed population of antagonist and agonist binding conformers in a single crystal explains partial agonism against vitamin D receptor: active vitamin D analogues with 22R-alkyl group” (J Med Chem, 2014), this text covers IC50 for ten compounds.

pIC50: −log10 of the molar value.

The target in this test is T1, Vitamin D3 receptor (Homo sapiens, UniProt P11473).
T1 sequence (P11473 whole entry): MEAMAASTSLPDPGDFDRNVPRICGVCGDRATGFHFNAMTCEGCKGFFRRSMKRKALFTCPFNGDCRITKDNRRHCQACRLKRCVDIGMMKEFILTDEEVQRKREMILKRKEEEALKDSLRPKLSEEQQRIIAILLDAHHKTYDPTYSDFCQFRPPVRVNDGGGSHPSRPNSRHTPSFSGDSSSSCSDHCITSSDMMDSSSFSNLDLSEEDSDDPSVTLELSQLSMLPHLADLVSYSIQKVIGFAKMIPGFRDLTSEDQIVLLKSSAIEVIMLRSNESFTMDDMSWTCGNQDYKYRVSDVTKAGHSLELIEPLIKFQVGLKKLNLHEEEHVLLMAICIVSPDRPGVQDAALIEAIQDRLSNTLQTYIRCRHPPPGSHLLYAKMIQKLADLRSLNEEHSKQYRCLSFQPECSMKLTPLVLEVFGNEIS
Description: Displacement of [3H]-1-alpha,25-dihydroxyvitamin D3 from N-terminal GST-tagged human recombinant VDR LBD expressed in Escherichia coli Rosetta2 (DE3) after 16 hrs
In turn, `C=C1[C@H](O)CC(=C/C=C2\CCC[C@]3(C)[C@@H]([C@H](C)[C@@H](CCO)CCCC)CC[C@@H]23)C[C@H]1O` had a negative logarithm of the IC50 (pIC50) of 9.59.
`C=C1[C@H](O)CC(=C/C=C2\CCC[C@]3(C)[C@@H]([C@H](C)[C@H](CC)CCO)CC[C@@H]23)C[C@H]1O` had a pIC50 of 8.54. This pIC50 lies 1.05 log units lower than the previous one.
Regarding `C=C1[C@H](O)CC(=C/C=C2\CCC[C@]3(C)[C@@H]([C@H](C)[C@H](CCCC)CC(C)(C)O)CC[C@@H]23)C[C@H]1O`, the pIC50 was 9.92.
`C=C1[C@H](O)CC(=C/C=C2\CCC[C@]3(C)[C@@H]([C@H](C)[C@H](CC)CC(C)(C)O)CC[C@@H]23)C[C@H]1O` showed a pIC50 of 8.81. Compared with the last compound, the pIC50 is 1.11 log units lower.
In turn, `C=C1[C@H](O)CC(=C/C=C2\CCC[C@]3(C)[C@@H]([C@H](C)[C@H](CCCC)CCCO)CC[C@@H]23)C[C@H]1O` gave a pIC50 of 9.05. This pIC50 lies 0.24 log units higher than the previous one.
Next, `C=C1[C@H](O)CC(=C/C=C2\CCC[C@]3(C)[C@@H]([C@H](C)[C@H](CC)CCCO)CC[C@@H]23)C[C@H]1O`: 8.15.
Consider `C=C1[C@H](O)CC(=C/C=C2\CCC[C@]3(C)[C@@H]([C@H](C)[C@H](CCCC)CCC(C)(C)O)CC[C@@H]23)C[C@H]1O`, for which the pIC50 was 9.54.
Consider `C=C1[C@H](O)CC(=C/C=C2\CCC[C@]3(C)[C@@H]([C@H](C)[C@H](CC)CCC(C)(C)O)CC[C@@H]23)C[C@H]1O`, for which the pIC50 is 8.62.
On to `C=C1[C@H](O)CC(=C/C=C2\CCC[C@]3(C)[C@@H]([C@H](C)[C@H](CCCC)CC(O)(CC)CC)CC[C@@H]23)C[C@H]1O`, for which the pIC50 was 8.75.
As for `C=C1[C@H](O)CC(=C/C=C2\CCC[C@]3(C)[C@@H]([C@H](C)[C@H](CC)CC(O)(CC)CC)CC[C@@H]23)C[C@H]1O`, the pIC50 is 8.81.
